These results are taken from US5409899A, “Pseudopeptide compounds having anti-inflammatory activity” (Adir et Compagnie, priority 1992, dated 1995).

For the experiment, the target named is T1, B2 receptor (Oryctolagus cuniculus, UniProt Q28642).
T1 construct: rabbit jugular vein: B2 receptor; from tissue; host or cells: rabbit jugular vein
T1 sequence (Q28642 1-367): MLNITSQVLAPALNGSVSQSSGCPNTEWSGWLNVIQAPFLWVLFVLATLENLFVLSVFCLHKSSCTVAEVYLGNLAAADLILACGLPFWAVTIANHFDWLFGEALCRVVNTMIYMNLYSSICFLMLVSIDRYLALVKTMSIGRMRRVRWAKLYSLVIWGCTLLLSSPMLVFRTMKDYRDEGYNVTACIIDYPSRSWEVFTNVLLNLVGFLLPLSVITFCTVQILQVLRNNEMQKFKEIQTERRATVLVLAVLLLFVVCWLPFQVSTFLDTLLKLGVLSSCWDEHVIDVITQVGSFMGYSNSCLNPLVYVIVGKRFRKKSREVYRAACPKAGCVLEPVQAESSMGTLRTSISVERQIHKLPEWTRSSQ
Description: Inhibition of bradykinin-induced contraction of rabbit jugular vein (B2 receptor). In kind it is cell-based. The following applies: read-out: pA2 (negative logarithm of the molar concentration which necessitates a doubling of the bradykinin concentration to obtain the same effect) (converted). From the text:
Pharmacological study of the compound of the invention: rabbit jugular vein: B2 receptor

Each structure is given as a SMILES string. Counter-ions that a name gives are not always drawn. Square brackets hold non-standard residues; d marks the D form. Peptide text beside a SMILES is read from it. * marks the point of attachment. Benzoyl(4-guanidino) = N=C(N)Nc1ccc(C(=O)*)cc1; Oic = O=C(O)[C@@H]1C[C@@H]2CCCC[C@@H]2N1; Hyp = O=C(O)[C@@H]1C[C@@H](O)CN1; dTic = O=C(O)[C@H]1Cc2ccccc2CN1; 2Thi = N[C@@H](Cc1cccs1)C(=O)O

Turning to `N=C(N)NCCC[C@H](NC(=O)[C@@H]1C[C@@H]2CCCC[C@@H]2N1C(=O)[C@H]1Cc2ccccc2CN1C(=O)[C@H](CO)NC(=O)[C@H](Cc1cccs1)NC(=O)CNC(=O)[C@@H]1C[C@@H](O)CN1C(=O)[C@@H]1CCCN1C(=O)[C@H](CCCNC(=N)N)NC(=O)c1ccc(NC(=N)N)cc1)C(=O)O` [Example 1, G-Arg-Pro-Hyp-Gly-Thia-Ser-(D)Tic-Oic-Arg-OH trifluoroacetate] ({Benzoyl(4-guanidino)}-RP[Hyp]G[2Thi]S[dTic][Oic]R-OH), the Kb is 0.186 nM.
